From patent US6613317B1, “Volatile attractants for diabrotica species” (priority 1988, dated 2003)
“And” between values parts separate entries of the source, which are not always exact repeats. Equal values may be shown once. Marks after values point to notes of the source that are not given here.

What was measured:
WCR = test: Limit of response rating of squash blossom volatiles on sticky traps (Example 5); format: in vivo, Diabrotica virgifera virgifera; conditions: 24 hour; four replicate traps; 0.01 mg to 200 mg
Method: (§1) Over 40 individual volatile chemicals have been isolated from Cucurbita maxima blossoms and circa 25 of these have been unequivocally identified (Andersen, J. F., J. Agric. Food Chem., 35:60-62 (1987): Andersen, J. F. and Metcalf, R. L., J. Chem. Ecol., 12:687-699 (1986)). The major odor components were evaluated as potential attractants for adult Diabrotica species using cylindrical sticky traps baited with dental cotton wicks (Metcalf, R. L., and Lampman, R. L., Paper submitted to J. Econ. Entomol., (1988)) containing from 0.01 mg to 200 mg of volatile compound.

NCR = test: as above; format: in vivo, Diabrotica barberi; conditions: 24 hour; four replicate traps; 0.01 mg to 200 mg
Method: as §1

SCR = test: as above; format: in vivo, Diabrotica undecimpunctata howardi; conditions: 24 hour; four replicate traps; 0.01 mg to 200 mg
Method: as §1

D. u. howardi = test: Sticky trap attraction in prairie habitat, Trelease Woods (Example 2); format: in vivo, Diabrotica undecimpunctata howardi; conditions: 100 mg per trap, n = 4
Method: (§2) The candidate lures in all experiments were purchased commercially and exceeded 98% purity. The test chemicals were applied by capillary micropipettes to cotton dental wicks which were attached to the tops of 1.0 liter cylindrical paper cartons covered with TangleTrap™ (Tanglefoot Co., Grand Rapids, Mich.). The sticky trap techniques used were as described in Example 1. Cinnamyl alcohol and para-methoxycinnamaldehyde, which are solids, were dissolved in glass-distilled acetone prior to dosing the cotton wicks. […]. Control traps had untreated cotton wicks. Four replicates of treated and untreated traps were randomly positioned 10 meters apart on top of 1 m high posts along the border of a eight foot wide strip cut through the middle of a 4.05 ha relict prairie at Trelease Woods (ca. two miles northeast of Urbana, Ill.). The field consisted primarily of Andropogon gerardii Vitman (big bluestem) and a variety of composites. The tests were conducted in mid-August of two years and were timed to coincide with the presence of D. cristata and D. barberi adults in the flower heads of Canada thistle (Carduus arvensis Robson). In the second year, several new attractants of D. v. virgifera and D. barberi were tested in Trelease Woods and along the edge of a 0.8 ha field of hybrid corn located at the Pomology South Farms, Urbana, Ill. Attraction of Diabrotica species to the various lures was measured by the mean number of beetles caught after 24-h. On one date in late August of the first year, D. cristata and D. barberi were removed from the traps and sexed in the laboratory. The significance of treatments in all tests was determined by an analysis of variance and the individual means were separated by Duncan's multiple range test (Statistical Package for Social Science, Nie, et al., SPSS: statistical package for the social sciences, 2nd ed. McGraw-Hill, New York (1975). Data were logarithmically transformed for statistical analysis and the means and standard deviations are presented for the untransformed data.

D. barberi = test: as above; format: in vivo, Diabrotica barberi; conditions: 100 mg per trap, n = 4
Method: as §2

D. cristata = test: as above; format: in vivo, Diabrotica cristata; conditions: 100 mg per trap, n = 4
Method: as §2

D. v. virgifera = test: as above; format: in vivo, Diabrotica virgifera virgifera; conditions: 100 mg per trap, n = 4
Method: as §2

[1] = tested on: southern corn rootworm (SCR) adults; test: Sticky trap attraction in sweet corn plots (Example 1); format: in vivo, Diabrotica undecimpunctata howardi; conditions: August 4, second year, each compound 20 mg per trap
Method: (§3) The attraction of Diabrotica species to single-component and multicomponent lures was evaluated in corn fields. The field experiments on attraction of SCR and WCR adults were conducted in 0.405-ha (1-acre) plots of “Illini Xtra Sweet” corn grown on the University of Illinois South Farms at Urbana, Ill., over a two year period. Most of the tests were conducted in August to correspond with the peak silk-feeding and oviposition periods of corn rootworm adults in central Illinois. In both years, the sweet corn plot was adjacent to a 0.405-ha trap crop of C. maxima cultivar “Blue Hubbard”, to provide high densitites of SCR and WCR adults in the corn plots (Howe, et al., Environ. Entomol., 5:745-751 (1976), Lampman, et al., J. Chem. Ecol., 13:959-975 (1987).
(§4) Attraction of Diabrotica species to volatile compounds was measured by the average number of beetles cought during a 24-h period on 1.0-liter cylindrical paper cartons (15.2 cm high, 27.9 cm circumference) which were evenly coated with clear insect adhesive, TangleTrap™ (Tanglefood Co., Grand Rapids, Mich.) The candidate attractants were applied by capillary micropiettes to cotton dental wicks (13 mm long by 6 mm diameter) that were previously impregnated with mineral oil to prolong volatilization. The chemicals were purchased from Aldrich Chemical Co., (Milwaukee, Wis.) and assayed by gas chromatography as >97% pure. Indole, a solid at ambient temperatures (m.p. 52-54° C.), was dissolved in glass-distilled acetone before dosing the cotton wicks. For dosage-acticity tests, the various components were mixed in equal quantities by weight and diluted to the appropriate dosage with acetone. Treated and untreated (control) wicks were attached to the top of the paper cartons with TangleTrap™ and the inverted traps were placed on 1-m-high posts between the sweet corn rows. Four replicates of each treatment and a control were conducted in a randomized complete block desgin. The sticky traps within a block (ca. 50-m row of corn) were 5-10 m apart (depending on the number of treatments in a particular test) and the blocks were 3 m apart. The traps were baited and placed in the field between 1000 and 1300 hours and beetle counts were taken after 24 h. The significance of treatments was determined by analysis of variance and the individual means were separated by Duncan's multiple range test (Statistical Package for Social Sciences (SPSS) (Nie, et al., SPSS: statistical package for the social sciences, 2nd ed. McGraw-Hill, N.Y. (1975)). Student's t test was used for comparisons of two means (Sokal, et al., Biometry, Freeman, San Francisco (1969). Significance levels were set at P=0.05 at all statistical analyses.
(§5) The initial field test in August of the first year evaluated the response of SCR and WCR adults of a mixture of veratrole (V), indole (I), phenylacetaldehyde (P), trans-anethole (A), and eugenol (E) (=VIPAE mixture), as well as to the individual components. Each component in the VIPAE mixture was present at a dosage of 20 mg per trap and was compared with the individual components at 100 mg per trap. The response of SCR and WCR adults to a range of VIPAE doses, 1-300 mg, was conducted on the following day. Fifty SCR adults were removed from each 100-mg VIPAE trap, and returned to the laboratory for sex determination. Additional analyses in August evaluated the reduction in trap catches produced by the sequential removal of the individual components from the VIPAE lure. After the primary components of the initial lure were determined, a modified multicomponent lure consisting of veratrole, indole, and phenylacetaldehyde (=VIP mixture) was compared with its individual components to determine whether the attraction of SCR adults was the result of interactive or additive factors. The attraction and synergistic response of SCR adults of the VIP mixture was verified by tests conducted in August of the following year. […]

[2] = tested on: western corn rootworm (WCR) adults; test: as above; format: in vivo, Diabrotica virgifera virgifera; conditions: August 4, second year, each compound 20 mg per trap
Method: as §3, §4, §5

CC/C=C\CCO [cis-3-hexenol]
Attractant Rating WCR (by limit of response) (WCR): +1 (30-100)
Attractant Rating NCR (by limit of response) (NCR): 0 (200)
Attractant Rating SCR (by limit of response) (SCR): 0 (200)

CCCCCCO [1-hexanol]
Attractant Rating WCR (by limit of response) (WCR): 0 (200)
Attractant Rating NCR (by limit of response) (NCR): 0 (200)
Attractant Rating SCR (by limit of response) (SCR): 0 (200)

O=Cc1ccccc1 [benzaldehyde]
Attractant Rating WCR (by limit of response) (WCR): 0 (200)
Attractant Rating NCR (by limit of response) (NCR): 0 (200)
Attractant Rating SCR (by limit of response) (SCR): 0 (200)

CCC/C=C/CO [trans-2-hexenol]
Attractant Rating WCR (by limit of response) (WCR): +1 (30-100)
Attractant Rating NCR (by limit of response) (NCR): 0 (200)
Attractant Rating SCR (by limit of response) (SCR): +1 (30-100)

C=CCc1ccc2c(c1)OCO2 [Safrole]
Mean number of D. u. howardi per sticky trap per day (±standard deviation) (D. u. howardi; August 20, first year): 0.0^a per sticky trap per day
Mean number of D. barberi per sticky trap per day (±standard deviation) (D. barberi; August 20, first year): 0.25 ± 0.25^a per sticky trap per day
Mean number of D. cristata per sticky trap per day (±standard deviation) (D. cristata; August 20, first year): 1.3 ± 1.9^a per sticky trap per day
Mean number of D. v. virgifera per sticky trap per day (±standard deviation) (D. v. virgifera; August 20, first year): 0 per sticky trap per day

COc1ccc(OC)cc1 [1,4-dimethoxybenzene]
Attractant Rating WCR (by limit of response) (WCR): 0 (200)
Attractant Rating NCR (by limit of response) (NCR): 0 (200)
Attractant Rating SCR (by limit of response) (SCR): 0 (200)

C=CCc1ccc(OC)c(OC)c1 [Methyl eugenol]
Mean number of D. u. howardi per day (±standard deviation) (D. u. howardi; August 14, 1987): 0.3 ± 0.5^a per day
Mean number of D. u. howardi per sticky trap per day (±standard deviation) (D. u. howardi; August 18, first year): 0.0^a per sticky trap per day
Mean number of D. u. howardi per sticky trap per day (±standard deviation) (D. u. howardi; August 20, first year): 0.3 ± 0.5^a per sticky trap per day
Mean number of D. barberi per day (±standard deviation) (D. barberi; August 14, 1987): 1.0 ± 1.4^a per day
Mean number of D. barberi per sticky trap per day (±standard deviation) (D. barberi; August 18, first year): 1.8 ± 1.7^a per sticky trap per day
Mean number of D. barberi per sticky trap per day (±standard deviation) (D. barberi; August 20, first year): 2.0 ± 1.4^ab per sticky trap per day
Mean number of D. cristata per day (±standard deviation) (D. cristata; August 14, 1987): 4.5 ± 1.3^ab per day
Mean number of D. cristata per sticky trap per day (±standard deviation) (D. cristata; August 18, first year): 1.8 ± 1.5^a per sticky trap per day
Mean number of D. cristata per sticky trap per day (±standard deviation) (D. cristata; August 20, first year): 1.5 ± 1.7^a per sticky trap per day
Mean number of D. v. virgifera per day (±standard deviation) (D. v. virgifera; August 14, 1987): 0.0^a per day
Mean number of D. v. virgifera per sticky trap per day (±standard deviation) (D. v. virgifera; August 18, first year): 0.0^a per sticky trap per day
Mean number of D. v. virgifera per sticky trap per day (±standard deviation) (D. v. virgifera; August 20, first year): 0 per sticky trap per day

CCC/C=C/C=O [trans-2-hexenal]
Attractant Rating WCR (by limit of response) (WCR): 0 (200)
Attractant Rating NCR (by limit of response) (NCR): 0 (200)
Attractant Rating SCR (by limit of response) (SCR): 0 (200)

C=CC(C)(O)CCC=C(C)CCC=C(C)C (stereo not shown) [nerolidol]
Attractant Rating WCR (by limit of response) (WCR): 0 (200)
Attractant Rating NCR (by limit of response) (NCR): 0 (200)
Attractant Rating SCR (by limit of response) (SCR): 0 (200)

COc1ccccc1O [Guaiacol, 2-methoxyphenol]
Mean number of D. u. howardi per sticky trap per day (±standard deviation) (D. u. howardi; August 20, first year): 0.8 ± 1.0^a per sticky trap per day
Mean number of D. barberi per sticky trap per day (±standard deviation) (D. barberi; August 20, first year): 4.3 ± 2.1^b per sticky trap per day
Mean number of D. cristata per sticky trap per day (±standard deviation) (D. cristata; August 20, first year): 6.0 ± 2.6^b per sticky trap per day
relative percent activity (SCR) as compared with the highest mean value for the test date [1]: 2%
Mean number of SCR per trap (±standard deviation) ([1]; n = 4): 0.8 ± 0.6 per trap
Mean number of D. v. virgifera per sticky trap per day (±standard deviation) (D. v. virgifera; August 20, first year): 0 per sticky trap per day
relative percent activity (WCR) as compared with the highest mean value for the test date [2]: 39%
Mean number of WCR per trap (±standard deviation) ([2]; n = 4): 20.0 ± 8.9 per trap

COc1ccc(OC)c(OC)c1 [1,2,4-trimethoxybenzene]
Attractant Rating WCR (by limit of response) (WCR): +1 (30-100)
Attractant Rating NCR (by limit of response) (NCR): 0 (200)
Attractant Rating SCR (by limit of response) (SCR): +1 (30-100)

COc1ccc(C=O)cc1 [p-methoxybenzaldehyde]
Attractant Rating WCR (by limit of response) (WCR): 0 (200)
Attractant Rating NCR (by limit of response) (NCR): 0 (200)
Attractant Rating SCR (by limit of response) (SCR): 0 (200)

CC=Cc1ccc(O)c(OC)c1 [Isoeugenol]
Mean number of D. u. howardi per sticky trap per day (±standard deviation) (D. u. howardi; August 18, first year): 0.0^a per sticky trap per day
Mean number of D. u. howardi per sticky trap per day (±standard deviation) (D. u. howardi; August 20, first year): 0.5 ± 1.0^a per sticky trap per day and 1.0 ± 0.8^a per sticky trap per day
Mean number of D. u. howardi per sticky trap per day (±standard deviation) (D. u. howardi; August 27, first year): 0.5 ± 1.0^a per sticky trap per day
Mean number of D. barberi per sticky trap per day (±standard deviation) (D. barberi; August 18, first year): 31.8 ± 26.7^b per sticky trap per day
Mean number of D. barberi per sticky trap per day (±standard deviation) (D. barberi; August 27, first year): 8.5 ± 3.4^b per sticky trap per day
Mean number of D. cristata per sticky trap per day (±standard deviation) (D. cristata; August 18, first year): 10.5 ± 12.6^b per sticky trap per day
Mean number of D. cristata per sticky trap per day (±standard deviation) (D. cristata; August 27, first year): 2.5 ± 1.7^b per sticky trap per day
Mean number of D. v. virgifera per sticky trap per day (±standard deviation) (D. v. virgifera; August 18, first year): 0.0^a per sticky trap per day
Mean number of D. v. virgifera per sticky trap per day (±standard deviation) (D. v. virgifera; August 20, first year): 0 per sticky trap per day
Mean number of D. v. virgifera per sticky trap per day (±standard deviation) (D. v. virgifera; August 27, first year): 0 per sticky trap per day

OCc1ccccc1 [benzyl alcohol]
Attractant Rating WCR (by limit of response) (WCR): 0 (200)
Attractant Rating NCR (by limit of response) (NCR): 0 (200)
Attractant Rating SCR (by limit of response) (SCR): 0 (200)

CCCCCC=O [1-hexanal]
Attractant Rating WCR (by limit of response) (WCR): 0 (200)
Attractant Rating NCR (by limit of response) (NCR): 0 (200)
Attractant Rating SCR (by limit of response) (SCR): 0 (200)
